A word on the IC50: it is the concentration that inhibits the measured activity by half. Read a low IC50 as inhibition by little substance.

The structures appear in SMILES notation. A value given as a limit tells only on which side of the number the result lay.

Here are results for 48 compounds from patent publication US20240327429A1, “[1,3]Thiazolo[4,5-d]-pyrimidon-7-ones as inhibitors of NOX4” (Boehringer Ingelheim International GmbH, priority 2023, published 2024).

The target in this experiment is T1, human NOX3 (hNOX3) (Homo sapiens, UniProt Q9HBY0).
T1 construct: pLV-CMV-hNOX3-puro (NM_015718.3); host or cells: HEK293 (CLS GmbH), lentiviral transduction
T1 sequence (Q9HBY0 1-568): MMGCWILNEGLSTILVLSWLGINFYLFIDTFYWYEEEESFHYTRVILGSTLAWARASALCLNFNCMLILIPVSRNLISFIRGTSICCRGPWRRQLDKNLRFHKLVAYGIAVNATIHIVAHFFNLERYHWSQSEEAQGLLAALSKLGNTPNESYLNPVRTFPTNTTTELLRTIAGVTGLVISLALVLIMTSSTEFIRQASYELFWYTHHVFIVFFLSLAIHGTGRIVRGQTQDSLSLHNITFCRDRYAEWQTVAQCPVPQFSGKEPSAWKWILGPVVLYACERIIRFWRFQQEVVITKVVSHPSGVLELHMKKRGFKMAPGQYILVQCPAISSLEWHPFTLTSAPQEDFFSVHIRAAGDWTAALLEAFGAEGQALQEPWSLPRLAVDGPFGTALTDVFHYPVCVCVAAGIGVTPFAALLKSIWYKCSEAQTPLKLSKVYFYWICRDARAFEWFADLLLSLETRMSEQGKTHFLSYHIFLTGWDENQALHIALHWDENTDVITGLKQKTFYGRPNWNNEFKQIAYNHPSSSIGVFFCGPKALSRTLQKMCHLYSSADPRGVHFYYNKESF
T1 sequence (P13498 2-195 partner limits assumed): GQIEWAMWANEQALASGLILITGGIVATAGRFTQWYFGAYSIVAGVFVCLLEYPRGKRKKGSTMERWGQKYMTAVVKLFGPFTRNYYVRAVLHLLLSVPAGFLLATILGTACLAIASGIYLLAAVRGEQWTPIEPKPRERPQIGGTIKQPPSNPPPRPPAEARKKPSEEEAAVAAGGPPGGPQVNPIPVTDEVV
The experiment is described as follows: NOX3 inhibition assay (L-012), HEK293 cells stably overexpressing human NOX3. The format is cell-based. As to conditions: HEK293-hNOX3, PMA stimulated. The text has this: Plasmids are Purchased from Vectorbuilder. • for HEK-hNOX1 all necessary subunits are cloned accordingly: • pLV-CMV-hNOX1-puro (NM_007052.5) • pLV-CMV-hNOXO1-blas (NM_172168.3) • pLV-CMV-hp22phox-hygro (NM_000101.4) • pLV-CMV-hNOXA1-neo (NM_006647.2) • for HEK-hNOX3 • pLV-CMV-hNOX3-puro (NM_015718.3)
3rd generation lentiviral particles are produced in HEK293 suspension cells by transient transfection of three helper and expression plasmids. Crucial lentivirus supernatants are harvested, clarified by filtration and concentrated by precipitation. Lentivirus titers are determined in transducing units in (TU/mL) by transduction of HT1080 cells and colony forming assay. Parental HEK293 cells, purchased from CLS GmbH, are transduced with replication-incompetent 3rd generation lentiviral particles (MOI 2) and expanded for at least 2 weeks before cryopreservation of tested lots. During cultivation, medium is changed three times per week and cells are sub-cultured at least once per week. Selection antibiotics are added according to the plasmids (1 μg/ml puromycin, 1.5 μg/ml blasticidin, 200 μg/ml G418 and 100 μg/ml hygromycin).
Evaluation of the NOX4 inhibitors on NOX3 activity is assessed in HEK293 cells stably overexpressing human NOX3 (hNOX3).
Cells are seeded in 384 well plates for 2 days. […] Cells are then stimulated with PMA at 0.1 μM to induce NOX3-dependent ROS production. […] Luminescence is measured with an PHERAstar multimode reader.
Compound `Cc1cc(F)cc(C)c1CSc1nc2ncsc2c(=O)n1-c1ccc(O)nn1` [Example 63] yielded an IC50 above 100 µM.
`O=c1c2scnc2nc(SCc2c(F)cc(F)cc2F)n1-c1cnc(O)cn1` [Example 69, 6-(5-Hydroxypyrazin-2-yl)-5-((2,4,6-trifluorobenzyl)thio)thiazolo[4,5-d]pyrimidin-7(6H)-one] registered a half-inhibitory concentration (IC50) of 77.5 µM.
`Cc1cc(Cl)ccc1CSc1nc2ncsc2c(=O)n1-c1cnc(O)c(F)c1` [Example 37] had an IC50 of 70.4 µM.
In the case of `O=c1c2scnc2nc(SCc2ccc(C(F)(F)F)cc2F)n1-c1ccc(O)nn1` [Example 65] it was 83.4 µM; in that of `Cc1cc(F)ccc1CSc1nc2ncsc2c(=O)n1-c1ccc(O)nc1` [Example 29], above 100 µM; in that of `Cc1cc(F)cc(C)c1CSc1nc2ncsc2c(=O)n1-c1ccc(O)nc1` [Example 24], above 100 µM.
The compound `O=c1c2scnc2nc(SCc2ccc(Cl)cc2F)n1-c1cc(F)c(O)c(F)c1` [Example 2, 5-((4-Chloro-2-fluorobenzyl)thio)-6-(3,5-difluoro-4-hydroxyphenyl)thiazolo[4,5-d]-pyrimidin-7(6H)-one] came in with an IC50 of 4.1 µM. In other words, the single-digit micromolar range.
`O=c1c2scnc2nc(SCc2c(F)cc(F)cc2F)n1-c1ccc(O)c(F)c1` [Example 11] had an IC50 of 16.3 µM.
Under `O=c1c2scnc2nc(SCc2ccc(F)cc2F)n1-c1cnc(O)c(F)c1` [Example 38] stands above 100 µM; under `O=c1c2scnc2nc(SCc2ccc(Cl)cc2F)n1-c1ccc(O)nc1` [Example 22, 5-((4-Chloro-2-fluorobenzyl)thio)-6-(6-hydroxypyridin-3-yl)thiazolo[4,5-d]pyrimidin-7(6H)-one], above 100 µM.
`O=c1c2scnc2nc(SCc2c(F)cc(F)cc2F)n1-c1cc(F)c(O)cc1F` [Example 10, 6-(2,5-Difluoro-4-hydroxyphenyl)-5-((2,4,6-trifluorobenzyl)thio)thiazolo[4,5-d]pyrimidin-7(6H)-one] came in with an IC50 of 4 µM.
`O=c1c2scnc2nc(SCc2c(F)cc(F)cc2F)n1-c1ccc(O)nn1` [Example 67] returned a half-maximal inhibitory concentration (IC50) above 100 µM.
Compound `O=c1c2scnc2nc(SCc2ccc(C(F)(F)F)cc2F)n1-c1ccc(O)nc1` [Example 26] returned an IC50 of 62.1 µM. This lies in the double-digit micromolar range.
As to `O=c1c2scnc2nc(SCc2ccc(Cl)cc2F)n1-c1cnc(O)nc1` [Example 53, 5-((4-Chloro-2-fluorobenzyl)thio)-6-(2-hydroxypyrimidin-5-yl)thiazolo[4,5-d]pyrimidin-7(6H)-one], the IC50 was above 100 µM.
Consider `O=c1c2scnc2nc(SCc2c(F)cc(F)cc2F)n1-c1ccc(O)cc1Cl` [Example 17], for which the IC50 was 61.4 µM. This lies in the double-digit micromolar range.
The compound `Cc1cc(Cl)ccc1CSc1nc2ncsc2c(=O)n1-c1cnc(O)nc1` [Example 54] gave an IC50 of 49.4 µM.
Under `O=c1c2scnc2nc(SCc2ccc(C(F)(F)F)cc2)n1-c1ccc(O)nc1` [Example 27] stands 86.8 µM; under `O=c1c2scnc2nc(SCc2c(F)cc(F)cc2F)n1-c1cc(F)c(O)cn1` [Example 20], 8.1 µM; under `O=c1c2scnc2nc(SCc2c(F)cc(F)cc2F)n1-c1cc(F)c(O)c(F)c1` [Example 8], 2.7 µM.
Compound `O=c1c2scnc2nc(SCc2ccc(Cl)cc2)n1-c1cnc(O)c(F)c1` [Example 33] returned an IC50 above 100 µM.
Take `O=c1c2scnc2nc(SCc2ccc(C(F)(F)F)cc2F)n1-c1cc(F)c(O)c(F)c1` [Example 6]: the IC50 was above 100 µM.
As for `O=c1c2scnc2nc(SCc2c(F)cc(F)cc2F)n1-c1ccc(O)c(Cl)c1` [Example 16], half-maximal inhibition (IC50) was put at 59.1 µM.
For `Cc1cc(F)cc(C)c1CSc1nc2ncsc2c(=O)n1-c1cnc(O)c(F)c1` [Example 43], the IC50 is above 100 µM.
Regarding `O=c1c2scnc2nc(SCc2c(F)cc(F)cc2F)n1-c1ncc(O)cn1` [Example 21, 6-(5-Hydroxypyrimidin-2-yl)-5-((2,4,6-trifluorobenzyl)thio)thiazolo[4,5-d]pyrimidin-7(6H)-one], the IC50 is above 100 µM.
`O=c1c2scnc2nc(SCc2ccc(F)cc2)n1-c1ccc(O)nc1` [Example 30] showed an IC50 of 98.1 µM. This counts as double-digit micromolar.
`O=c1c2scnc2nc(SCc2ccc(Cl)cc2)n1-c1cnc(O)nc1` [Example 56] yielded an IC50 above 100 µM.
Consider `O=c1c2scnc2nc(SCc2ccc(Cl)cc2)n1-c1ccc(O)nn1` [Example 64], for which the IC50 was above 100 µM.
Take `O=c1c2scnc2nc(SCc2ccc(C(F)(F)F)cc2)n1-c1cnc(O)nc1` [Example 60]: the IC50 was above 100 µM.
Take `O=c1c2scnc2nc(SCc2c(F)cc(F)cc2F)n1-c1ccc(O)nc1` [Example 28]: the IC50 was above 100 µM.
On to `O=c1c2scnc2nc(SCc2c(F)cc(F)cc2F)n1-c1cnc(O)nc1` [Example 59], for which the IC50 is above 100 µM.
Regarding `Cc1cc(Cl)ccc1CSc1nc2ncsc2c(=O)n1-c1cc(F)c(O)c(F)c1` [Example 3], the IC50 is above 100 µM.
In turn, `O=c1c2scnc2nc(SCc2c(F)cc(F)cc2F)n1-c1cc(F)c(O)nc1F` [Example 51, 6-(2,5-Difluoro-6-hydroxypyridin-3-yl)-5-((2,4,6-trifluorobenzyl)thio)thiazolo[4,5-d]-pyrimidin-7(6H)-one] returned an IC50 of 6.4 µM.
In turn, `O=c1c2scnc2nc(SCc2ccc(Cl)cc2)n1-c1ccc(O)nc1` [Example 25] returned an IC50 above 100 µM.
In turn, `O=c1c2scnc2nc(SCc2c(F)cc(F)cc2F)n1-c1ccc(O)cc1` [Example 15] came in with an IC50 above 100 µM.
Compound `O=c1c2scnc2nc(SCc2ccc(C(F)(F)F)cc2F)n1-c1cnc(O)nc1` [Example 57] returned an IC50 above 100 µM.
Compound `O=c1c2scnc2nc(SCc2ccc(C(F)(F)F)cc2F)n1-c1cnc(O)c(F)c1` [Example 42] had an IC50 of 46.4 µM. This lies in the double-digit micromolar range.
In turn, `O=c1c2scnc2nc(SCc2c(F)cc(F)cc2F)n1-c1cnc(O)c(F)c1F` [Example 52, 6-(4,5-Difluoro-6-hydroxypyridin-3-yl)-5-((2,4,6-trifluorobenzyl)thio)thiazolo[4,5-d]-pyrimidin-7(6H)-one] showed an IC50 of 15.5 µM.
Compound `N#Cc1cc(-n2c(SCc3c(F)cc(F)cc3F)nc3ncsc3c2=O)ccc1O` [Example 18] showed an IC50 of 0.4 µM. This IC50 lies about 39-fold lower than the previous one.
In the case of `N#Cc1cc(-n2c(SCc3c(F)cc(F)cc3F)nc3ncsc3c2=O)cnc1O` [Example 47, 2-Hydroxy-5-(7-oxo-5-((2,4,6-trifluorobenzyl)thio)thiazolo[4,5-d]pyrimidin-6(7H)-yl)-nicotinonitrile], half-maximal inhibition (IC50) was put at 18.8 µM.
For `O=c1c2scnc2nc(SCc2c(F)cc(F)cc2Cl)n1-c1cnc(O)c(F)c1` [Example 41], the midpoint of inhibition, the IC50, lay at 32.3 µM.
Under `O=c1c2scnc2nc(SCc2ccc(C(F)(F)F)cc2Cl)n1-c1cnc(O)c(F)c1` [Example 46] stands 56.4 µM.
Consider `O=c1c2scnc2nc(SCc2c(F)cc(F)cc2F)n1-c1cnc(O)c(Cl)c1` [Example 48, 6-(5-Chloro-6-hydroxypyridin-3-yl)-5-((2,4,6-trifluorobenzyl)thio)thiazolo[4,5-d]pyri-midin-7(6H)-one], for which the IC50 was above 100 µM.
Under `O=c1c2scnc2nc(SCc2ccc(C(F)(F)F)cc2)n1-c1cc(F)c(O)c(F)c1` [Example 7] stands above 100 µM; under `Cc1c(F)cccc1CSc1nc2ncsc2c(=O)n1-c1cnc(O)c(F)c1` [Example 40], 39.2 µM.
Regarding `Cc1cc(F)ccc1CSc1nc2ncsc2c(=O)n1-c1ccc(O)nn1` [Example 68], the IC50 is above 100 µM.
Take `O=c1c2scnc2nc(SCc2c(F)cc(F)cc2F)n1-c1ccc(O)c(F)c1F` [Example 12]: the IC50 was found to be 7.6 µM.
In the case of `O=c1c2scnc2nc(SCc2c(F)cc(F)cc2F)n1-c1ccc(O)cn1` [Example 19] it was above 100 µM; in that of `Cc1cc(F)ccc1CSc1nc2ncsc2c(=O)n1-c1cnc(O)c(F)c1` [Example 36], 87.9 µM.
